Columns and labels:
Assay type in all cases: functional
Rattus norvegicus [1] = experiment: Antidiabetic activity in STZ-induced diabetic rat model assessed as increase in plasma insulin level at 20 mg/kg, po qd for 21 days
Rattus norvegicus [2] = experiment: Antidiabetic activity in STZ-induced diabetic rat model assessed as increase in muscle glycogen at 20 mg/kg, po qd for 21 days
Rattus norvegicus [3] = experiment: Antidiabetic activity in STZ-induced diabetic rat model assessed as reduction in glucose-6-phosphatase at 20 mg/kg, po qd for 21 days; parameters: scale not given: the % may be the effect or the level left
Rattus norvegicus [4] = experiment: Antidiabetic activity in STZ-induced diabetic rat model assessed as increase in liver glycogen at 20 mg/kg, po qd for 21 days
Rattus norvegicus [5] = experiment: Antidiabetic activity in STZ-induced diabetic rat model assessed as reduction in glycosylated haemoglobin at 20 mg/kg, po qd for 21 days; parameters: scale not given: the % may be the effect or the level left
Rattus norvegicus [6] = experiment: Antidiabetic activity in STZ-induced diabetic rat model assessed as increase in glucose 6 phosphate dehydrogenase at 20 mg/kg, po qd for 21 days

CC[C@H](CC[C@@H](C)[C@H]1CC[C@H]2[C@@H]3CC=C4C[C@@H](O)CC[C@]4(C)[C@H]3CC[C@]12C)C(C)C [BETA-SITOSTEROL]
Activity (Rattus norvegicus [1]): 69.05% | Activity (Rattus norvegicus [2]): 76.86% | Activity (Rattus norvegicus [3]): 40.07% | Activity (Rattus norvegicus [4]): 77.15% | Activity (Rattus norvegicus [5]): 66.96% | Activity (Rattus norvegicus [6]): 38.52%

From ChEMBL document CHEMBL1926541, “Molecular docking of γ-sitosterol with some targets related to diabetes” (2012)
